{
  "source": "ChEMBL document CHEMBL3400053",
  "about": "“trans-3,4-Disubstituted pyrrolidines as inhibitors of the human aspartyl protease renin. Part II: prime site exploration using an oxygen linker” (Bioorg Med Chem Lett, 2015)",
  "key": {"[1]": {"target": "T1, Renin (Homo sapiens, UniProt P00797)", "T1 sequence (P00797 whole entry)": "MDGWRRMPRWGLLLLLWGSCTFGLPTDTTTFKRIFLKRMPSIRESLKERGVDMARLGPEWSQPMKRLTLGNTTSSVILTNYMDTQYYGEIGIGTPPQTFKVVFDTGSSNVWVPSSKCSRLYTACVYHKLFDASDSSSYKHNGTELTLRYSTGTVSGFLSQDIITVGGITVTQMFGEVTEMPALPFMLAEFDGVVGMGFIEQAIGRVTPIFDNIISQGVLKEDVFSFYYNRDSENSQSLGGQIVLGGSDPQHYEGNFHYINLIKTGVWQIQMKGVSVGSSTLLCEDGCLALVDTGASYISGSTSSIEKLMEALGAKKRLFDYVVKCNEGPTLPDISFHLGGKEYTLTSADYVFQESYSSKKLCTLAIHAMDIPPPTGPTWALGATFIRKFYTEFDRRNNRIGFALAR", "assay": "Inhibition of human recombinant renin by TR-FRET assay"}, "[2]": {"target": "Cytochrome P450 3A4 (Homo sapiens, UniProt P08684)", "sequence (P08684 whole entry)": "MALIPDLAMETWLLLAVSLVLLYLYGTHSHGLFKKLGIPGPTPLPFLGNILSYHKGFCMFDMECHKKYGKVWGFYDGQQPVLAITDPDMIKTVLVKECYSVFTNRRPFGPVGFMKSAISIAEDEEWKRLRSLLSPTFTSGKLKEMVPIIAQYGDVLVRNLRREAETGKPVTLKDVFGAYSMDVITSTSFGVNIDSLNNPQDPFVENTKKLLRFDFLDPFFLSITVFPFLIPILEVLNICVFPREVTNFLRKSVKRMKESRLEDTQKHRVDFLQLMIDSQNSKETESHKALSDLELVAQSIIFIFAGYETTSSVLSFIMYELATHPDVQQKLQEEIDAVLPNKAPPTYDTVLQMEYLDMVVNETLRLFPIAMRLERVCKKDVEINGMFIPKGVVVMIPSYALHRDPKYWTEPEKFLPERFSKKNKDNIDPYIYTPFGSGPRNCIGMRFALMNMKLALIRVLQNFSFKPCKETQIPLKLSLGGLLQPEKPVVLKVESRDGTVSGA", "assay": "Inhibition of CYP3A4 (unknown origin) using 7-benzyl-4-trifluoromethylcoumarin as fluorometric substrate", "assay_type": "ADME"}, "[3]": {"tested_on": "Rattus norvegicus", "assay": "Reduction in mean arterial blood pressure in orally dosed hypertensive telemetered double-transgenic rat overexpressing human renin and angiotensinogen", "assay_type": "functional, organism-based"}, "[4]": {"assay": "Ratio of permeability from basolateral to apical to side over apical to basolateral side in human Caco2 cells", "assay_type": "ADME, cell-based", "conditions": "caco-2"}, "[5]": {"target": "T1, Renin", "assay": "Inhibition of human recombinant renin in presence of plasma by TR-FRET assay"}},
  "data": [
    {"smiles": "COCCCOc1cc(C(=O)N(C[C@@H]2CNC[C@H]2OCc2cccc(-c3cccc(OC)c3)c2)C(C)C)ccc1OC", "note": "(racemic)", "values": [
      {"measurement": "IC50", "setting": "[1]", "value": 350, "unit": "nM"}
    ]},
    {"smiles": "COCCCOc1cc(C(=O)N(C[C@@H]2CNC[C@H]2OC(=O)N(C)Cc2nc3ccccc3s2)C(C)C)ccc1OC", "note": "(racemic)", "values": [
      {"measurement": "IC50", "setting": "[1]", "value": 30, "unit": "nM"}
    ]},
    {"smiles": "COCCCOc1cc(C(=O)N(C[C@H]2CNC[C@H]2OCc2ccccc2)C(C)C)ccc1OC", "note": "(racemic)", "values": [
      {"measurement": "IC50", "setting": "[1]", "value": 3150, "unit": "nM"}
    ]},
    {"smiles": "COCCCOc1cc(C(=O)N(C[C@@H]2CNC[C@H]2OC(=O)N(C)Cc2ccccc2)C(C)C)ccc1OC", "note": "(racemic)", "values": [
      {"measurement": "IC50", "setting": "[1]", "value": 350, "unit": "nM"}
    ]},
    {"smiles": "COCCCOc1cc(C(=O)N(C[C@@H]2CNC[C@H]2OC(=O)NCc2ccccc2)C(C)C)ccc1OC", "note": "(racemic)", "values": [
      {"measurement": "IC50", "setting": "[1]", "value": 80, "unit": "nM"}
    ]},
    {"smiles": "COCCCOc1cc(C(=O)N(C[C@@H]2CNC[C@H]2OCc2cccc(OC)c2)C(C)C)ccc1OC", "note": "(racemic)", "values": [
      {"measurement": "IC50", "setting": "[2]", "value": "≤ 200", "unit": "nM"},
      {"measurement": "IC50", "setting": "[1]", "value": 250, "unit": "nM"}
    ]},
    {"smiles": "COCCCOc1cc(C(=O)N(C[C@@H]2CNC[C@H]2OCc2ccc3ccccc3c2)C(C)C)ccc1OC", "note": "(racemic)", "values": [
      {"measurement": "IC50", "setting": "[1]", "value": 90, "unit": "nM"}
    ]},
    {"smiles": "COCCCOc1cc(C(=O)N(C[C@@H]2CNC[C@H]2OC(=O)N(C)Cc2cccc3c2OCO3)C(C)C)ccc1OC", "note": "(racemic)", "values": [
      {"measurement": "IC50", "setting": "[1]", "value": 20, "unit": "nM"}
    ]},
    {"smiles": "COCCCOc1cc(C(=O)N(C[C@@H]2CNC[C@H]2OC(=O)NCc2nccs2)C(C)C)ccc1OC", "note": "(racemic)", "values": [
      {"measurement": "IC50", "setting": "[1]", "value": 100, "unit": "nM"}
    ]},
    {"smiles": "COCCCOc1cc(C(=O)N(C[C@@H]2CNC[C@H]2OC(=O)Nc2cccc(OC)c2)C(C)C)ccc1OC", "note": "(racemic)", "values": [
      {"measurement": "IC50", "setting": "[1]", "value": 300, "unit": "nM"}
    ]},
    {"smiles": "COCCCOc1cc(C(=O)N(C[C@H]2CNC[C@@H]2OC(=O)NCc2ccccc2)C(C)C)ccc1OC", "values": [
      {"measurement": "IC50", "setting": "[1]", "value": 9200, "unit": "nM"}
    ]},
    {"smiles": "COCCCOc1cc(C(=O)N(C[C@@H]2CNC[C@H]2OC(=O)NCc2ccccc2)C(C)C)ccc1OC", "values": [
      {"measurement": "inhibition", "setting": "[3]", "value": "Dose-dependent effect"}
    ]},
    {"smiles": "COCCCOc1cc(C(=O)N(C[C@@H]2CNC[C@H]2OCc2cccc(-n3cccc3)c2)C(C)C)ccc1OC", "note": "(racemic)", "values": [
      {"measurement": "IC50", "setting": "[2]", "value": "≤ 200", "unit": "nM"},
      {"measurement": "IC50", "setting": "[1]", "value": 85, "unit": "nM"}
    ]},
    {"smiles": "COCCCOc1cc(C(=O)N(C[C@@H]2CNC[C@H]2OCc2cccc(-c3ccccc3OC)c2)C(C)C)ccc1OC", "note": "(racemic)", "values": [
      {"measurement": "IC50", "setting": "[1]", "value": 65, "unit": "nM"}
    ]},
    {"smiles": "COCCCOc1cc(C(=O)N(C[C@@H]2CNC[C@H]2OC(=O)NCc2ccco2)C(C)C)ccc1OC", "note": "(racemic)", "values": [
      {"measurement": "IC50", "setting": "[1]", "value": 90, "unit": "nM"}
    ]},
    {"smiles": "COCCCOc1cc(C(=O)N(C[C@@H]2CNC[C@H]2OCc2ccccc2)C(C)C)ccc1OC", "note": "(racemic)", "values": [
      {"measurement": "Ratio", "setting": "[4]", "value": 62},
      {"measurement": "IC50", "setting": "[1]", "value": 770, "unit": "nM"},
      {"measurement": "IC50", "setting": "[5]", "value": 850, "unit": "nM"}
    ]},
    {"smiles": "COCCCOc1cc(C(=O)N(C[C@@H]2CNC[C@H]2OC(=O)N(C)Cc2ccccc2-n2cccc2)C(C)C)ccc1OC", "note": "(racemic)", "values": [
      {"measurement": "IC50", "setting": "[1]", "value": 9, "unit": "nM"}
    ]},
    {"smiles": "COCCCOc1cc(C(=O)N(C[C@@H]2CNC[C@H]2OCc2cccc3ccccc23)C(C)C)ccc1OC", "note": "(racemic)", "values": [
      {"measurement": "IC50", "setting": "[1]", "value": 200, "unit": "nM"}
    ]},
    {"smiles": "CCOc1ccccc1-c1cccc(CO[C@@H]2CNC[C@H]2CN(C(=O)c2ccc(OC)c(OCCCOC)c2)C(C)C)c1", "note": "(racemic)", "values": [
      {"measurement": "IC50", "setting": "[1]", "value": 550, "unit": "nM"}
    ]},
    {"smiles": "COCCCOc1cc(C(=O)N(C[C@@H]2CNC[C@H]2OCc2cccc(Oc3ccccc3)c2)C(C)C)ccc1OC", "note": "(racemic)", "values": [
      {"measurement": "IC50", "setting": "[1]", "value": 250, "unit": "nM"}
    ]},
    {"smiles": "COCCCOc1cc(C(=O)N(C[C@@H]2CNC[C@H]2OCc2cccc(-c3cccc(C)c3)c2)C(C)C)ccc1OC", "note": "(racemic)", "values": [
      {"measurement": "IC50", "setting": "[1]", "value": 65, "unit": "nM"}
    ]},
    {"smiles": "COCCCOc1cc(C(=O)N(C[C@@H]2CNC[C@H]2OC(=O)N(C)Cc2ccccc2N2CCCC2)C(C)C)ccc1OC", "note": "(racemic)", "values": [
      {"measurement": "IC50", "setting": "[1]", "value": 80, "unit": "nM"}
    ]},
    {"smiles": "COCCCOc1cc(C(=O)N(C[C@@H]2CNC[C@H]2OC(=O)N2CCCC2)C(C)C)ccc1OC", "note": "(racemic)", "values": [
      {"measurement": "IC50", "setting": "[1]", "value": 1150, "unit": "nM"}
    ]},
    {"smiles": "COCCCOc1cc(C(=O)N(C[C@@H]2CNC[C@H]2OC(=O)N(C)Cc2cccc3ccccc23)C(C)C)ccc1OC", "note": "(racemic)", "values": [
      {"measurement": "IC50", "setting": "[1]", "value": 45, "unit": "nM"},
      {"measurement": "IC50", "setting": "[5]", "value": 35, "unit": "nM"}
    ]},
    {"smiles": "COCCCOc1cc(C(=O)N(C[C@@H]2CNC[C@H]2OCc2cccc(-c3ccccc3)c2)C(C)C)ccc1OC", "note": "(racemic)", "values": [
      {"measurement": "IC50", "setting": "[2]", "value": "≤ 200", "unit": "nM"},
      {"measurement": "IC50", "setting": "[1]", "value": 145, "unit": "nM"},
      {"measurement": "IC50", "setting": "[5]", "value": 1100, "unit": "nM"}
    ]},
    {"smiles": "COCCCOc1cc(C(=O)N(C[C@@H]2CNC[C@H]2Oc2ccc(C(F)(F)F)cc2)C(C)C)ccc1OC", "note": "(racemic)", "values": [
      {"measurement": "IC50", "setting": "[1]", "value": 450, "unit": "nM"}
    ]}
  ]
}
